# Experimental data published in patent US9809578B2, “Pyrazolyl urea, thiourea, guanidine and cyanoguanidine compounds as trkA kinase inhibitors” (Array BioPharma Inc., priority 2012, dated 2017).
# Assays:
# Assay type in all cases: biochemical
# Settings in all cases: 10 μM, ATP near Km
# DDR2 = biological target: T1, DDR2 (Homo sapiens, UniProt Q16832); assay: KinaseProfiler DDR2
# T1 construct: purchased Millipore, Inc. (KinaseProfiler service)
# Description: (§1) The compound was run in duplicate at a concentration of ATP near the Km for each individual kinase according to Millipore's specifications.
# CAMK1d = biological target: T2, CAMK1d (Homo sapiens, UniProt Q8IU85); assay: KinaseProfiler CAMK1d
# T2 construct: purchased Millipore (KinaseProfiler service)
# Description: as §1
# p38alpha = biological target: T3, p38alpha (Homo sapiens, UniProt Q16539); assay: KinaseProfiler p38alpha
# T3 construct: purchased Millipore, Inc. (KinaseProfiler service)
# Description: as §1
# HIPK3 = biological target: T4, HIPK3 (Homo sapiens, UniProt Q9H422); assay: KinaseProfiler HIPK3
# T4 construct: purchased Millipore, Inc. (KinaseProfiler service)
# Description: as §1
# Bmx = biological target: T5, Bmx (Homo sapiens, UniProt P51813); assay: KinaseProfiler Bmx
# T5 construct: purchased Millipore (KinaseProfiler service)
# Description: as §1
# VRK2 = biological target: T6, VRK2 (Homo sapiens, UniProt Q86Y07); assay: KinaseProfiler VRK2
# T6 construct: purchased Millipore, Inc. (KinaseProfiler service)
# Description: as §1
# Txk = biological target: T7, Txk (Homo sapiens, UniProt P42681); assay: KinaseProfiler Txk
# T7 construct: purchased Millipore, Inc. (KinaseProfiler service)
# Description: as §1
# RIPK2 = biological target: T8, RIPK2 (Homo sapiens, UniProt O43353); assay: KinaseProfiler RIPK2
# T8 construct: purchased Millipore, Inc. (KinaseProfiler service)
# Description: as §1
# WNK3 = biological target: T9, WNK3 (Homo sapiens, UniProt Q9BYP7); assay: KinaseProfiler WNK3
# T9 construct: purchased Millipore, Inc. (KinaseProfiler service)
# Description: as §1
# Fer = biological target: T10, Fer (Homo sapiens, UniProt P16591); assay: KinaseProfiler Fer
# T10 construct: purchased Millipore, Inc. (KinaseProfiler service)
# Description: as §1
# DYRK2 = biological target: T11, DYRK2 (Homo sapiens, UniProt Q92630); assay: KinaseProfiler DYRK2
# T11 construct: purchased Millipore, Inc. (KinaseProfiler service)
# Description: as §1
# IRAK4 = biological target: T12, IRAK4 (Homo sapiens, UniProt Q9NWZ3); assay: KinaseProfiler IRAK4
# T12 construct: purchased Millipore, Inc. (KinaseProfiler service)
# Description: as §1
# NEK7 = biological target: T13, NEK7 (Homo sapiens, UniProt Q8TDX7); assay: KinaseProfiler NEK7
# T13 construct: purchased Millipore, Inc. (KinaseProfiler service)
# Description: as §1
# PKCzeta = biological target: T14, PKCzeta (Homo sapiens, UniProt Q05513); assay: KinaseProfiler PKCzeta
# T14 construct: purchased Millipore, Inc. (KinaseProfiler service)
# Description: as §1
# CDK2/cyclinA = biological target: T15, CDK2/cyclinA (Homo sapiens, UniProt P24941); assay: KinaseProfiler CDK2/cyclinA
# T15 construct: purchased Millipore, Inc. (KinaseProfiler service)
# Description: as §1
# GSK3alpha = biological target: T16, GSK3alpha (Homo sapiens, UniProt P49840); assay: KinaseProfiler GSK3alpha
# T16 construct: purchased Millipore, Inc. (KinaseProfiler service)
# Description: as §1
# TAO3 = biological target: T17, TAO3 (Homo sapiens, UniProt Q9H2K8); assay: KinaseProfiler TAO3
# T17 construct: purchased Millipore, Inc. (KinaseProfiler service)
# Description: as §1
# BrSK2 = biological target: T18, BrSK2 (Homo sapiens, UniProt Q8IWQ3); assay: KinaseProfiler BrSK2
# T18 construct: purchased Millipore (KinaseProfiler service)
# Description: as §1
# MSSK1 = biological target: T19, MSSK1 (Homo sapiens, UniProt Q9UPE1); assay: KinaseProfiler MSSK1
# T19 construct: purchased Millipore, Inc. (KinaseProfiler service)
# Description: as §1
# DRAK1 = biological target: T20, DRAK1 (Homo sapiens, UniProt Q9UEE5); assay: KinaseProfiler DRAK1
# T20 construct: purchased Millipore, Inc. (KinaseProfiler service)
# Description: as §1
# WNK2 = biological target: T21, WNK2 (Homo sapiens, UniProt Q9Y3S1); assay: KinaseProfiler WNK2
# T21 construct: purchased Millipore, Inc. (KinaseProfiler service)
# Description: as §1
# Axl = biological target: T22, Axl (Homo sapiens, UniProt P30530); assay: KinaseProfiler Axl
# T22 construct: purchased Millipore (KinaseProfiler service)
# Description: as §1
# ROCK-I = biological target: T23, ROCK-I (Homo sapiens, UniProt Q13464); assay: KinaseProfiler ROCK-I
# T23 construct: purchased Millipore, Inc. (KinaseProfiler service)
# Description: as §1
# IR = biological target: T24, IR (Homo sapiens, UniProt P06213); assay: KinaseProfiler IR
# T24 construct: purchased Millipore, Inc. (KinaseProfiler service)
# Description: as §1
# CAMK2d = biological target: T25, CAMK2d (Homo sapiens, UniProt Q13557); assay: KinaseProfiler CAMK2d
# T25 construct: purchased Millipore (KinaseProfiler service)
# Description: as §1
# MKK6 = biological target: T26, MKK6 (Homo sapiens, UniProt P52564); assay: KinaseProfiler MKK6
# T26 construct: purchased Millipore, Inc. (KinaseProfiler service)
# Description: as §1
# Flt4 = biological target: T27, Flt4 (Homo sapiens, UniProt P35916); assay: KinaseProfiler Flt4
# T27 construct: purchased Millipore, Inc. (KinaseProfiler service)
# Description: as §1
# GRK5 = biological target: T28, GRK5 (Homo sapiens, UniProt P34947); assay: KinaseProfiler GRK5
# T28 construct: purchased Millipore, Inc. (KinaseProfiler service)
# Description: as §1
# STK33 = biological target: T29, STK33 (Homo sapiens, UniProt Q9BYT3); assay: KinaseProfiler STK33
# T29 construct: purchased Millipore, Inc. (KinaseProfiler service)
# Description: as §1
# EphB4 = biological target: T30, EphB4 (Homo sapiens, UniProt P54760); assay: KinaseProfiler EphB4
# T30 construct: purchased Millipore, Inc. (KinaseProfiler service)
# Description: as §1
# MST3 = biological target: T31, MST3 (Homo sapiens, UniProt Q9Y6E0); assay: KinaseProfiler MST3
# T31 construct: purchased Millipore, Inc. (KinaseProfiler service)
# Description: as §1
# Abl-P = biological target: T32, Abl-P (Homo sapiens, UniProt P00519); assay: KinaseProfiler Abl-P
# T32 construct: purchased Millipore (KinaseProfiler service)
# Description: as §1
# p38delta = biological target: T33, p38delta (Homo sapiens, UniProt O15264); assay: KinaseProfiler p38delta
# T33 construct: purchased Millipore, Inc. (KinaseProfiler service)
# Description: as §1
# MELK = biological target: T34, MELK (Homo sapiens, UniProt Q14680); assay: KinaseProfiler MELK
# T34 construct: purchased Millipore, Inc. (KinaseProfiler service)
# Description: as §1
# eEF-2K = biological target: T35, eEF-2K (Homo sapiens, UniProt O00418); assay: KinaseProfiler eEF-2K
# T35 construct: purchased Millipore, Inc. (KinaseProfiler service)
# Description: as §1
# PAK6 = biological target: T36, PAK6 (Homo sapiens, UniProt Q9NQU5); assay: KinaseProfiler PAK6
# T36 construct: purchased Millipore, Inc. (KinaseProfiler service)
# Description: as §1
# CHK2 = biological target: T37, CHK2 (Homo sapiens, UniProt O96017); assay: KinaseProfiler CHK2
# T37 construct: purchased Millipore, Inc. (KinaseProfiler service)
# Description: as §1
# Haspin = biological target: T38, Haspin (Homo sapiens, UniProt Q8TF76); assay: KinaseProfiler Haspin
# T38 construct: purchased Millipore, Inc. (KinaseProfiler service)
# Description: as §1
# PRK2 = biological target: T39, PRK2 (Homo sapiens, UniProt Q16513); assay: KinaseProfiler PRK2
# T39 construct: purchased Millipore, Inc. (KinaseProfiler service)
# Description: as §1
# CAMK4 = biological target: T40, CAMK4 (Homo sapiens, UniProt Q16566); assay: KinaseProfiler CAMK4
# T40 construct: purchased Millipore (KinaseProfiler service)
# Description: as §1
# FGFR4 = biological target: T41, FGFR4 (Homo sapiens, UniProt P22455); assay: KinaseProfiler FGFR4
# T41 construct: purchased Millipore, Inc. (KinaseProfiler service)
# Description: as §1
# PKD1 = biological target: T42, PKD1 (Homo sapiens, UniProt Q15139); assay: KinaseProfiler PKD1
# T42 construct: purchased Millipore, Inc. (KinaseProfiler service)
# Description: as §1
# FGFR2 = biological target: T43, FGFR2 (Homo sapiens, UniProt P21802); assay: KinaseProfiler FGFR2
# T43 construct: purchased Millipore, Inc. (KinaseProfiler service)
# Description: as §1
# T43 sequence (P21802 22-821): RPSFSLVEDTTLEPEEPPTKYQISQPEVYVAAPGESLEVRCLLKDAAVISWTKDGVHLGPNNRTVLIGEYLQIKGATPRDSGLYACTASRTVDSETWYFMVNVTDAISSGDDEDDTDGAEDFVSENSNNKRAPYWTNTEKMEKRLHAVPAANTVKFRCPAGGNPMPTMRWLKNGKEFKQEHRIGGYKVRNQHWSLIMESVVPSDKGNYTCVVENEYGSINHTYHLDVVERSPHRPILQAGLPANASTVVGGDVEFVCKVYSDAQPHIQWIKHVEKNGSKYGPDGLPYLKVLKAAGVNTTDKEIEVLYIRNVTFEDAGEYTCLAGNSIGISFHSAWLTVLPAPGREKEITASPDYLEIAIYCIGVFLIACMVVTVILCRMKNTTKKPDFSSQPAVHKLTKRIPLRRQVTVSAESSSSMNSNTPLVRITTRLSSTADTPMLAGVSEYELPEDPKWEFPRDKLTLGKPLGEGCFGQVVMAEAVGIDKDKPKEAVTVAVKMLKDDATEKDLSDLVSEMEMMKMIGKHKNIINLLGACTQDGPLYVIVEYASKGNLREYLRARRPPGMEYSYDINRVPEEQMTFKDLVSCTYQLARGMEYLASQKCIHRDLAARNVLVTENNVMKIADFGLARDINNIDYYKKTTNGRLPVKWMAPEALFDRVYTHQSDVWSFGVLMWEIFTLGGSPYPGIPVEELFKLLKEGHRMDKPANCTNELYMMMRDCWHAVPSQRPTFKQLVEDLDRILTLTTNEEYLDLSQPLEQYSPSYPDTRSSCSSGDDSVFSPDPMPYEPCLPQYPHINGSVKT
# T6 sequence (Q86Y07 whole entry): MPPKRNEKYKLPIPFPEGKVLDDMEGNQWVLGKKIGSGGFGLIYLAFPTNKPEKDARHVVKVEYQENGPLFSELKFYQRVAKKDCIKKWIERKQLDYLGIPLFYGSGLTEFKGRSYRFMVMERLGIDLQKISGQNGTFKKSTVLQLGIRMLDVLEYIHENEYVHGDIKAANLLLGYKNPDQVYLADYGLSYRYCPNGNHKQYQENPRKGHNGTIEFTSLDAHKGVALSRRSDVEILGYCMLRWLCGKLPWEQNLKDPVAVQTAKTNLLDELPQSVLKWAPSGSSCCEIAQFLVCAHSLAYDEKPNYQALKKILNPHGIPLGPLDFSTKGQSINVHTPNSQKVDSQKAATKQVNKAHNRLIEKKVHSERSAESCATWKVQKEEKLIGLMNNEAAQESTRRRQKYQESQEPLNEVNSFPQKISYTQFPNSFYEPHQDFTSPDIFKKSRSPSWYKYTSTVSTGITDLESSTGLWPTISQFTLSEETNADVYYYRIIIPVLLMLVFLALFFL
# T14 sequence (Q05513 whole entry): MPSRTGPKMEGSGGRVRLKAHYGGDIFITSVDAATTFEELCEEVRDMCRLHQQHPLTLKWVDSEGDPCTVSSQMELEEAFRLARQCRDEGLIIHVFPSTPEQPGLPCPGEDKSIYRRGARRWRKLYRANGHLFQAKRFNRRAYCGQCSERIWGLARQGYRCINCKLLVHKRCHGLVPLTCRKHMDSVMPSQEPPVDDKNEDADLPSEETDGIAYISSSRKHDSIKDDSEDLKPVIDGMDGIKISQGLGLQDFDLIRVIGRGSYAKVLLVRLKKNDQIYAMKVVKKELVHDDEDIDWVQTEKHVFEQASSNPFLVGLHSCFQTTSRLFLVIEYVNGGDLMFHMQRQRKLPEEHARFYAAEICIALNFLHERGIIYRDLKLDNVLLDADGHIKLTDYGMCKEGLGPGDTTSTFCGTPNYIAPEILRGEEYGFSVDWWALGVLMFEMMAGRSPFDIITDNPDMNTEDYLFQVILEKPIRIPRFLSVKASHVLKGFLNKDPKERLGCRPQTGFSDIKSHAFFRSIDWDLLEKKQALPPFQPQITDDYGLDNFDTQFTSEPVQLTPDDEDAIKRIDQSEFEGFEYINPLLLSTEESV
# T13 sequence (Q8TDX7 whole entry): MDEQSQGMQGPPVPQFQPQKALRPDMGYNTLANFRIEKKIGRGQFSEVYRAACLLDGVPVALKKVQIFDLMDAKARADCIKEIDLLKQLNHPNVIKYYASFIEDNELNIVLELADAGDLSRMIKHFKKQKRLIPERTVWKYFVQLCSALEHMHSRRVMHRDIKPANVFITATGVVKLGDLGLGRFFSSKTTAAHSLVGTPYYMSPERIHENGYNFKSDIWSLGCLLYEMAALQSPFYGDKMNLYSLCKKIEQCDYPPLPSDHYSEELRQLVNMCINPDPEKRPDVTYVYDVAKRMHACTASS
# T3 sequence (Q16539 whole entry): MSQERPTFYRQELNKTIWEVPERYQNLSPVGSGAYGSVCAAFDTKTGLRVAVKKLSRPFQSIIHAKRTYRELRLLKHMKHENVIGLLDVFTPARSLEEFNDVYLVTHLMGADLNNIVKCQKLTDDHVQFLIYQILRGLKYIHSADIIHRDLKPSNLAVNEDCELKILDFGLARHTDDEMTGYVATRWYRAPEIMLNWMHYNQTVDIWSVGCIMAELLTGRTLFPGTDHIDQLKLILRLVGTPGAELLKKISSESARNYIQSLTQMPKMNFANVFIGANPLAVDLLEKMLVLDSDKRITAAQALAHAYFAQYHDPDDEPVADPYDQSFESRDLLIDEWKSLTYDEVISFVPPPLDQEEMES
# T17 sequence (Q9H2K8 whole entry): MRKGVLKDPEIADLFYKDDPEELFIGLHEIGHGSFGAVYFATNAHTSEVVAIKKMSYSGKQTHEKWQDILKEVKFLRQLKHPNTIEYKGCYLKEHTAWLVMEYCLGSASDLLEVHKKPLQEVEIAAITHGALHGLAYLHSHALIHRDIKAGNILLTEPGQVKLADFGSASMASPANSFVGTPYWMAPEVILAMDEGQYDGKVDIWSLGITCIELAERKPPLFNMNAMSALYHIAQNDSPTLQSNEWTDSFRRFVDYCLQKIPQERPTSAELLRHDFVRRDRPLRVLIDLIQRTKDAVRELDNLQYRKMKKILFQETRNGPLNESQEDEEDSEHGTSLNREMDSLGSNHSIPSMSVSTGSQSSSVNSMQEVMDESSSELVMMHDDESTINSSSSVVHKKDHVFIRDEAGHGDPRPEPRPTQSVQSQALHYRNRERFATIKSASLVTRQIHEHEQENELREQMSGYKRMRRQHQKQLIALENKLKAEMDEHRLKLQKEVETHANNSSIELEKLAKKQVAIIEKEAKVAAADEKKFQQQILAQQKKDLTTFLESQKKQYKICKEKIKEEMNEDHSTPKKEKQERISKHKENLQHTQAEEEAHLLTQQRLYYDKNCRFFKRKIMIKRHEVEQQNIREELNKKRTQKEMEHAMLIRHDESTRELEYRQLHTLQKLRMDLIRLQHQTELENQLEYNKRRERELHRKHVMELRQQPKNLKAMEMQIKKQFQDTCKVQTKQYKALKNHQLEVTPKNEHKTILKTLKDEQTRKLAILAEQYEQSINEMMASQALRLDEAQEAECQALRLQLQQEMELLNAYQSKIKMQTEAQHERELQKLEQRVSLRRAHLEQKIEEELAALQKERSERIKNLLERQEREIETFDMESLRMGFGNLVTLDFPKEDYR
# T8 sequence (O43353 whole entry): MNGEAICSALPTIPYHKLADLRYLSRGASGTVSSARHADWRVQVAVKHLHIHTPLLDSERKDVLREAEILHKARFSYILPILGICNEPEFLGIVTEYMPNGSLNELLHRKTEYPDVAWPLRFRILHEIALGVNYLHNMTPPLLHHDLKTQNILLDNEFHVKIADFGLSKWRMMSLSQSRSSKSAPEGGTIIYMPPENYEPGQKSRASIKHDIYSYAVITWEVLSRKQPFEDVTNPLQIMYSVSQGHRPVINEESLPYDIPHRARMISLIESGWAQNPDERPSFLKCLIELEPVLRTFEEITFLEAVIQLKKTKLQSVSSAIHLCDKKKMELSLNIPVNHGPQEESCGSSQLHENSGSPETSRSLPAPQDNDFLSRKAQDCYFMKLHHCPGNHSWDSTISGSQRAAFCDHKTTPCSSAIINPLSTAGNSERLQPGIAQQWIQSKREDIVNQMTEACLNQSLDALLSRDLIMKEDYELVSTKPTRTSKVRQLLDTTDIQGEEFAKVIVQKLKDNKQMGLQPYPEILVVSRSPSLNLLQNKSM
# T26 sequence (P52564 whole entry): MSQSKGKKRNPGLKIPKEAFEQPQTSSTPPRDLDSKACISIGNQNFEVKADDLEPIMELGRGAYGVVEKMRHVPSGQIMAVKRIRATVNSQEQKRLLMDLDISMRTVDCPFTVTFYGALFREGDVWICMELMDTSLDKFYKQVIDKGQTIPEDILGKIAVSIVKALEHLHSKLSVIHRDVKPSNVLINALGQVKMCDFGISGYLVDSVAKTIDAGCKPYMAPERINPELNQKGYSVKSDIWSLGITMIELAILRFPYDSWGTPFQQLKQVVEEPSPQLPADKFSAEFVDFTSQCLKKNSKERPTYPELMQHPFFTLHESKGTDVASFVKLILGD
# T36 sequence (Q9NQU5 whole entry): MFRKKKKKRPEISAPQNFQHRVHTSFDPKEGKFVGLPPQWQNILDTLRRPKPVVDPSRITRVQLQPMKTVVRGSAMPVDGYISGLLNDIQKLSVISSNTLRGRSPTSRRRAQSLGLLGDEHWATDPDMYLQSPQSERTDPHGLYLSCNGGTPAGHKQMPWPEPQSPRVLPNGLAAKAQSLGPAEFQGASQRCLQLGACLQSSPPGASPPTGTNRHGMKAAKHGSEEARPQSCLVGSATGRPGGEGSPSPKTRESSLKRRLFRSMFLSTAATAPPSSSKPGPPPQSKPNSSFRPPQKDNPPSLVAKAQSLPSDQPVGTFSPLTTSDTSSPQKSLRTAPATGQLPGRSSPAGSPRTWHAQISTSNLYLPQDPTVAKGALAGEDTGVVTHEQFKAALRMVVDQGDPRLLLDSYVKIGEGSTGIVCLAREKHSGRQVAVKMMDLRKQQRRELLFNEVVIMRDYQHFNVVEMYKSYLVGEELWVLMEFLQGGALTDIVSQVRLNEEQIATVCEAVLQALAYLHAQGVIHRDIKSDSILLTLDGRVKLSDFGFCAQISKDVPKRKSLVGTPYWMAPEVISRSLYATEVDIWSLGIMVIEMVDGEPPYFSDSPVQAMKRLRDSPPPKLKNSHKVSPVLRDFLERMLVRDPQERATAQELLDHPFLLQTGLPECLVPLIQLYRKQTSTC
smiles,measurement,setting,value
"Cc1c(-c2cnn(C)c2)nn(-c2ccccc2)c1NC(=O)Nc1cc(C(F)(F)F)nn1-c1ccccc1 [Example 3, 1-(1′,4-dimethyl-1-phenyl-1H,1′H-[3,4′-bipyrazol]-5-yl)-3-(1-phenyl-3-(trifluoromethyl)-1H-pyrazol-5-yl)urea]",Avg POC,DDR2,98 POC
same,Avg POC,CAMK1d,138 POC
same,Avg POC,p38alpha,93 POC
same,Avg POC,HIPK3,109.5 POC
same,Avg POC,Bmx,114.5 POC
same,Avg POC,VRK2,96.5 POC
same,Avg POC,Txk,139.5 POC
same,Avg POC,RIPK2,96.5 POC
same,Avg POC,WNK3,108 POC
same,Avg POC,Fer,92.5 POC
same,Avg POC,DYRK2,92.5 POC
same,Avg POC,IRAK4,131.5 POC
same,Avg POC,NEK7,118 POC
same,Avg POC,PKCzeta,103 POC
same,Avg POC,CDK2/cyclinA,100.5 POC
same,Avg POC,GSK3alpha,170 POC
same,Avg POC,TAO3,94 POC
same,Avg POC,BrSK2,135 POC
same,Avg POC,MSSK1,140 POC
same,Avg POC,DRAK1,129 POC
same,Avg POC,WNK2,120 POC
same,Avg POC,Axl,117 POC
same,Avg POC,ROCK-I,115 POC
same,Avg POC,IR,90 POC
same,Avg POC,CAMK2d,131 POC
same,Avg POC,MKK6,132.5 POC
same,Avg POC,Flt4,80.5 POC
same,Avg POC,GRK5,84 POC
same,Avg POC,STK33,107.5 POC
same,Avg POC,EphB4,116 POC
same,Avg POC,MST3,146.5 POC
same,Avg POC,Abl-P,154.5 POC
same,Avg POC,p38delta,92.5 POC
same,Avg POC,MELK,115 POC
same,Avg POC,eEF-2K,148.5 POC
same,Avg POC,PAK6,167 POC
same,Avg POC,CHK2,126.5 POC
same,Avg POC,Haspin,121 POC
same,Avg POC,PRK2,106.5 POC
same,Avg POC,CAMK4,147.5 POC
same,Avg POC,FGFR4,174.5 POC
same,Avg POC,PKD1,100.5 POC
same,Avg POC,FGFR2,110 POC
